Target: T1, BoGH5A (Bacteroides ovatus, UniProt A7LXT7)
T1 sequence (A7LXT7 34-502 limits assumed): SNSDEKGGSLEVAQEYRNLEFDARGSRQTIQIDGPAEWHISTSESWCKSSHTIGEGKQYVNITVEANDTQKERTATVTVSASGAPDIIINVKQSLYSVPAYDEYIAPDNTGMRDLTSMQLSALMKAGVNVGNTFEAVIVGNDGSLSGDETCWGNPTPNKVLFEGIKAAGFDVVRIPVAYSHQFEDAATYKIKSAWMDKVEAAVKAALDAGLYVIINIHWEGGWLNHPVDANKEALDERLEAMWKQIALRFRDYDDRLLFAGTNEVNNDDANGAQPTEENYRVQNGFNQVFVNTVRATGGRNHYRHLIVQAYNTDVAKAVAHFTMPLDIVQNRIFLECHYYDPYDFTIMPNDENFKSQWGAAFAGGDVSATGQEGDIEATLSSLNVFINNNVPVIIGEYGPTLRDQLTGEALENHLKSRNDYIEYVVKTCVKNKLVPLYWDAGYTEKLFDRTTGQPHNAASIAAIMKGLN
Assay: 2-chloro-4-nitrophenolate release, A405, continuous
Type: biochemical
Conditions: read-out: Km (mM) ^‡; 37 °C, 50 mM buffer at or near pH optimum (6.0-7.0)

O=[N+]([O-])c1ccc(O[C@@H]2O[C@H](CO)[C@@H](O[C@@H]3O[C@H](CO[C@H]4OC[C@@H](O)[C@H](O)[C@H]4O[C@@H]4O[C@H](CO)[C@H](O)[C@H](O)[C@H]4O)[C@@H](O[C@@H]4O[C@H](CO[C@H]5OC[C@@H](O)[C@H](O)[C@H]5O[C@@H]5O[C@H](CO)[C@H](O)[C@H](O)[C@H]5O)[C@@H](O[C@@H]5O[C@H](CO[C@H]6OC[C@@H](O)[C@H](O)[C@H]6O)[C@@H](O)[C@H](O)[C@H]5O)[C@H](O)[C@H]4O)[C@H](O)[C@H]3O)[C@H](O)[C@H]2O)c(Cl)c1 [XLLG-β-CNP] was tested. Which Km did it give?
Its Km is 0.145 ± 0.024 mM.
